# Patent publication US20230364079A1, “COMPOUND AS BRAIN-PERMEABLE BTK OR HER2 INHIBITOR, PREPARATION METHOD THEREFOR, AND USE THEREOF” (CHENGDU HYPERWAY PHARMACEUTICALS CO., LTD., priority 2020, published 2023)
# Key:
# [1] = Pharmacokinetic test, oral, SD rats; type: in vivo; details: oral 10 mg/kg, plasma; for AUC(0-inf) / Cmax / half-life: rat; for Cmax: read-out: Cmax; for half-life: read-out: T½ (converted)
# Experimental: Each test compound was administered orally (10 mg/kg, 3 rats in each group) to SD rats for pharmacokinetic study. […] Animals were fasted overnight before oral administration, and fed again after 4 h of administration. […] At each collection time point, 3 whole blood samples were collected at a the collection volume of about 0.2-0.3 mL. […] The collected plasma was stored at -20° C. before analysis. 20 µL of plasma sample was added into a 1.6 mL 96-well deep-well plate, added with 200 µL of working internal standard solution (the same volume of vehicle was added to the blank instead of internal standard), vortexed for 1 min, and centrifuged at 5800 rpm for 10 min. 100 µL of the supernatant was added to a 96-well injection plate for LC-MS/MS analysis.
# [2] = target: BTK wild-type kinase (Homo sapiens (Human), UniProt Q06187); assay: BTK kinase activity inhibition test in vitro (Caliper EZ Reader); type: biochemical
# Experimental: In the tests on the activity of inhibiting BTK and HER2 kinase in vitro in the examples of the present disclosure, powder of the compound was dissolved in 100% DMSO to prepare a 10 mM stock solution and stored at-20° C. in the dark. […] In addition, the compounds were subjected to experiments such as liver microsome metabolic stability, rat PK, rat brain penetration rate, and drug efficacy model in the examples of the present disclosure.
# Compound powders were dissolved in 100% DMSO to make 10 mM stock solutions, which were stored at -20° C. in the dark.
# 2: Kinase Reaction Process
# (1) Preparation of 1 × Kinase buffer.
# (5) After centrifugation at 1000 rpm for 30 seconds, the reaction plate was shaken to mix well and incubated at room temperature for 10 min.
# (6) A 5/3-fold final concentration of a mixed solution of ATP and Kinase substrate 2 was prepared with 1 × Kinase buffer.
# (7) 15 µL of the mixed solution of ATP and substrate with 5/3-fold final concentration was added to start the reaction.
# (8) The 384-well plate was centrifuged at 1000 rpm for 30 seconds, shaken to mix well, and incubated at room temperature for 10 min.
# (9) 30 µL of a stop solution was added to stop the kinase reaction, and after centrifugation at 1000 rpm for 30 seconds, the plate was shaken to mix well;
# (10) The conversion rate was read with Caliper EZ Reader.
# where Conversion%_sample indicates the conversion rate reading of the sample; Conversion%_min is the average reading of the negative control wells, representing the conversion rate reading of the wells without enzyme activity; Conversion%_max is the average reading of the ratio of the positive control wells, representing the conversion rate reading of the wells without compound inhibition.
# Dose-Response Curve Fitting
# With the log value of the concentration as the X-axis, and the percentage inhibition rate as the Y-axis, the dose-effect curve was fitted using the log(inhibitor) vs. response-Variable slope of the analysis software GraphPad Prism 5, so as to determine the IC50 value of each compound on the enzyme activity.
# The calculation formula was: […]
# BTK wild-type kinase, sequence (Q06187 whole entry): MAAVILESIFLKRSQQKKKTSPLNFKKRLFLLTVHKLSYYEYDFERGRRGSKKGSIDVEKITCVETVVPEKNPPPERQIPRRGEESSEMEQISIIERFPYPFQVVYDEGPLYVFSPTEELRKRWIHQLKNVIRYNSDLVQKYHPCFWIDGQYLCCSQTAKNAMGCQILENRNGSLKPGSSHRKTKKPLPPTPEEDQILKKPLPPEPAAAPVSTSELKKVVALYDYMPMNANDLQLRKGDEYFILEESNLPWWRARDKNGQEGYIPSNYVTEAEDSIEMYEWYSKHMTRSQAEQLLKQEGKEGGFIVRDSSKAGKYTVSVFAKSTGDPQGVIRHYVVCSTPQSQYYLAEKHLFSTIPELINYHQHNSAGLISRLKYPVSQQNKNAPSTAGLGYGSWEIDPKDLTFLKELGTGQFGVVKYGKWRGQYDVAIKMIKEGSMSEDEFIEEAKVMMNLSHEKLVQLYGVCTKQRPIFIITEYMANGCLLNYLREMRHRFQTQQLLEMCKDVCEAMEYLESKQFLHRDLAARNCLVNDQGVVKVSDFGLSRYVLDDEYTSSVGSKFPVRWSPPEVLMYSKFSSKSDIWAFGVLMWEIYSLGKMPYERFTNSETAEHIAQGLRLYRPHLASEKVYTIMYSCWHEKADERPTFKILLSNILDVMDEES
SMILES,IC50 [2],other results
"COc1ccccc1C(=O)NCc1ccc(-c2nn(C3CCC(CO)OC3)c3ncnc(N)c23)cc1 (single isomer, unassigned) [Compound 60-B]",20 to 100 nM,Cl [1]: 188.82 mL/min/kg; AUC(0-inf) [1]: 889 ng·h/mL; Cmax [1]: 946 ng/mL; half-life [1]: 2.89 h
Nc1nccn2c(C3CCC(CO)OC3)nc(-c3ccc(C(=O)Nc4nccc(C(F)(F)F)c4F)cc3)c12 (stereo not drawn) [Compound 86],100 to 1000 nM,–
Nc1nccn2c(C3CCC(CO)OC3)nc(-c3ccc(C(=O)Nc4ncccc4F)cc3)c12 (stereo not drawn) [Compound 87],100 to 1000 nM,–
COc1ccccc1Oc1ccc(-c2nc(C3CCC(CO)OC3)n3ccnc(N)c23)cc1 (stereo not drawn) [Compound 88],20 to 100 nM,–
COc1cccc(Oc2ccc(-c3nc(C4CCC(CO)OC4)n4ccncc34)cc2)c1F (stereo not drawn) [Compound 90],20 to 100 nM,–
Cc1cccc(Oc2ccc(-c3nc(C45CCC(CO)(CC4)OC5)n4ccnc(N)c34)cc2)c1F [Compound 92],< 5 nM,–
Nc1nccn2c(C34CCC(CO)(CC3)OC4)nc(-c3ccc(Oc4cccc(C(F)(F)F)c4F)cc3)c12 [Compound 93],5 to 20 nM,–
Nc1nccn2c(C34CCC(CO)(CC3)OC4)nc(-c3ccc(Oc4cccc(Cl)c4F)cc3)c12 [Compound 94],5 to 20 nM,–
Nc1nccn2c(C34CCC(CO)(CC3)OC4)nc(-c3ccc(Oc4cccc(OC(F)(F)F)c4F)cc3)c12 [Compound 95],5 to 20 nM,–
COc1ccc(C#N)c(Oc2ccc(-c3nc(C4CCC(CO)OC4)n4ccnc(N)c34)cc2)c1 (stereo not drawn) [Compound 96],20 to 100 nM,–
Cc1cccnc1NC(=O)c1ccc(-c2nc(C3CCC(CO)OC3)n3ccnc(N)c23)cc1 (stereo not drawn) [Compound 97],100 to 1000 nM,–
COc1cccc(Oc2ccc(-c3nc(C4CCC(CO)OC4)n4ccnc(N)c34)c(F)c2)c1C#N (stereo not drawn) [Compound 98],< 5 nM,–
NC(=O)c1ccccc1C(=O)c1ccc(-c2nc(C3CCC(CO)OC3)n3ccnc(N)c23)cc1 (stereo not drawn) [Compound 99],> 1000 nM,–
COc1cccc(Oc2ccc(-c3nc(C4CCC(CO)OC4)n4c(Cl)cnc(N)c34)cc2)c1C#N (stereo not drawn) [Compound 100],< 5 nM,–
Nc1nccn2c(C3CCC(CO)OC3)nc(-c3ccc(C(=O)c4ccc(Cl)cc4)cc3)c12 (stereo not drawn) [Compound 102],20 to 100 nM,–
COc1cccc(Oc2ccc(-c3nc(C4CCC(CO)OC4)n4ccnc(N)c34)cc2)n1 (stereo not drawn) [Compound 104],5 to 20 nM,–
Nc1nccn2c(C3CCC(CO)OC3)nc(-c3ccc(C(=O)Nc4cc(C(F)(F)F)ccn4)cc3F)c12 (stereo not drawn) [Compound 105],< 5 nM,–
CNC(=O)c1cc(Oc2ccc(-c3nc(C4CCC(CO)OC4)n4ccnc(N)c34)cc2)ccn1 (stereo not drawn) [Compound 107],100 to 1000 nM,–
Nc1ncnc2c1c(-c1ccc(C(=O)Nc3ccccn3)cc1)nn2C1CCC(CO)OC1 (stereo not drawn) [Compound 108],5 to 20 nM,–
Nc1ncc(Cl)n2c(C3CCC(CO)OC3)nc(-c3ccc(C(=O)Nc4cc(C(F)(F)F)ccn4)cc3)c12 (stereo not drawn) [Compound 110],< 5 nM,–
COc1cccc(Oc2ccc(-c3nc(C45CCC(CO)(CC4)OC5)n4ccnc(N)c34)cc2)c1C(F)(F)F [Compound 112],5 to 20 nM,–
Nc1nccn2c(C3CCC(CO)OC3)nc(-c3ccc(C(F)(F)c4ccccc4)cc3F)c12 (stereo not drawn) [Compound 113],5 to 20 nM,–
Nc1nccn2c(C34CCC(CO)(CC3)OC4)nc(-c3ccc(C(F)(F)c4ccccc4)cc3F)c12 [Compound 114],5 to 20 nM,–
COc1cccc(Oc2ccc(-c3nc(C45CCC(CO)(CC4)OC5)n4ccnc(N)c34)c(F)c2)c1C#N [Compound 115],< 5 nM,–

SMILES,IC50 [2],other results
COc1cccc(Oc2ccc(-c3nc(C45CCC(CO)(CC4)OC5)n4ccnc(N)c34)cc2)c1C#N [Compound 116],< 5 nM,Cl [1]: 84.73 mL/min/kg; AUC(0-inf) [1]: 2010 ng·h/mL; Cmax [1]: 858 ng/mL; half-life [1]: 1.35 h
Nc1nccn2c(C34CCC(CO)(CC3)OC4)nc(-c3ccc(C(=O)Nc4cc(C(F)(F)F)ccn4)cc3F)c12 [Compound 117],< 5 nM,–
COc1cccc(Oc2ccc(-c3nc(C4CCC(CO)OC4)n4ccnc(N)c34)cc2)c1C(F)(F)F (stereo not drawn) [Compound 119],< 5 nM,Cl [1]: 75.92 mL/min/kg; AUC(0-inf) [1]: 2250 ng·h/mL; Cmax [1]: 663 ng/mL; half-life [1]: 0.64 h
COc1cccc(Oc2ccc(-c3nc(C45CCC(CO)(CC4)OC5)n4c(Cl)cnc(N)c34)cc2)c1C#N [Compound 122],< 5 nM,–
COc1cccc(C(F)(F)c2ccc(-c3nc(C4CCC(CO)OC4)n4ccnc(N)c34)cc2)c1C#N (stereo not drawn) [Compound 123],20 to 100 nM,–
COc1cccc(C(F)(F)c2ccc(-c3nc(C4CCC(CO)OC4)n4ccnc(N)c34)cc2)c1F (stereo not drawn) [Compound 126],5 to 20 nM,–
Nc1nccn2c(C3CCC(CO)OC3)nc(-c3ccc(C(F)(F)c4cccc(F)c4F)cc3)c12 (stereo not drawn) [Compound 127],5 to 20 nM,–
Nc1ncc(Cl)n2c(C34CCC(CO)(CC3)OC4)nc(-c3ccc(C(=O)Nc4cc(C(F)(F)F)ccn4)cc3)c12 [Compound 128],< 5 nM,–
COc1cccc(C(F)(F)c2ccc(-c3nc(C45CCC(CO)(CC4)OC5)n4ccnc(N)c34)cc2)c1F [Compound 129],5 to 20 nM,–
Nc1nccn2c(C34CCC(CO)(CC3)OC4)nc(-c3ccc(C(F)(F)c4cccc(F)c4F)cc3)c12 [Compound 130],5 to 20 nM,–
CC(C)(c1ccccc1)c1ccc(-c2nc(C3CCC(CO)OC3)n3ccnc(N)c23)cc1 (stereo not drawn) [Compound 131],> 1000 nM,–
COc1cccc(C(F)(F)c2ccc(-c3nc(C45CCC(CO)(CC4)OC5)n4ccnc(N)c34)cc2)c1 [Compound 132],20 to 100 nM,–
Nc1nccn2c(C3CCC(CO)OC3)nc(-c3ccc(C(=O)Nc4ccccc4F)cc3)c12 (stereo not drawn) [Compound 133],100 to 1000 nM,–
COc1cccc(Oc2ccc(-c3nc(C4CCC(CO)OC4)n4c(C)cnc(N)c34)cc2)c1F (stereo not drawn) [Compound 134],5 to 20 nM,–
N#Cc1ccnc(NC(=O)c2ccc(-c3nc(C45COC(CO)(C4)C5)n4ccnc(N)c34)cc2)c1 [Compound 135],5 to 20 nM,–
Nc1nccn2c(C34COC(CO)(C3)C4)nc(-c3ccc(C(=O)Nc4cc(C(F)(F)F)ccn4)cc3)c12 [Compound 136],5 to 20 nM,–
COc1cccc(Oc2ccc(-c3nc(C45COC(CO)(C4)C5)n4ccnc(N)c34)cc2)c1C#N [Compound 137],5 to 20 nM,–
Nc1nccn2c(C34COC(CO)(C3)C4)nc(-c3ccc(C(F)(F)c4ccccc4)cc3)c12 [Compound 138],20 to 100 nM,–
Nc1nccn2c(C34CCC(CO)(CC3)OC4)nc(-c3ccc(C(F)(F)c4ccc(F)c(Cl)c4)cc3)c12 [Compound 140],100 to 1000 nM,–
Nc1nccn2c(C34CCC(CO)(CC3)OC4)nc(-c3ccc(C(F)(F)c4ccc(F)cc4)cc3)c12 [Compound 141],100 to 1000 nM,–
Nc1nccn2c(C34CCC(CO)(CC3)OC4)nc(-c3ccc(C(F)(F)c4cccc(F)c4)cc3)c12 [Compound 142],100 to 1000 nM,–
Nc1nccn2c(C34CCC(CO)(CC3)OC4)nc(-c3ccc(C(F)(F)c4cccc(C5CC5)c4)cc3)c12 [Compound 143],20 to 100 nM,–
"C=CC(=O)N1CCC[C@@H](n2nc(-c3ccc(Oc4ccccc4)cc3)c3c(N)ncnc32)C1 [Ibrutinib, reference compound]",–,AUC(0-inf) [1]: 362 ng·h/mL; Cmax [1]: 222 ng/mL
